Source: ChEMBL document CHEMBL3507680, “University of Dundee, Gates Library screen for HepG2 cell viability”

Assay: Human HepG2 cell viability assay in 384 well format
Format: toxicity, cell-based
Design: dose 125 nL, time 70.5 hour; concentration not given beside the values
Details: HepG2 cells, read-out: Inhibition

Row | SMILES | cytotoxicity at 70.5 h
1 | O=c1c2ccccc2nc2n1C(CSc1ccc(Cl)cc1)CN2 (stereo unspecified) | 2.49%
2 | COC(=O)c1ccc(Cn2nc(C)cc2C)cc1 | 12.9%
3 | COc1ccc(S(=O)(=O)N2CCOC(Cn3ccnc3)C2)cc1 (stereo unspecified) | -8.46%
4 | CC(=O)c1ccc(S(=O)(=O)N2CCOC(Cn3ccnc3)C2)cc1 (stereo unspecified) | -7.46%
5 | CNC(=O)[C@@]12CCC3(CCN(C(C)=O)CC3)[C@@H]1CN(S(C)(=O)=O)C2 | -4.49%
6 | CNC(=O)c1cc2c(nc1NCC(C)C)CCN(S(=O)(=O)C1CC1)CC2 | -6.3%
7 | COCC1c2nnn(CC3CC3)c2CCN1C(=O)c1cccc(F)c1 (stereo unspecified) | -6.77%
8 | CCOCC1CN(S(C)(=O)=O)Cc2ncn(CC3CC3)c21 (stereo unspecified) | 3.76%
9 | CCS(=O)(=O)N1CC[C@]2(C[C@@H](OCC3CC3)CO2)C1 | -8.16%
10 | O=C(NCc1cnc2n1CCN(CC1CC1)CC2)C1CCC1 | -8.49%
11 | CCc1ccccc1NC(=O)N1CCn2cnc(COC)c2C1 | -7.61%
12 | CCc1noc(CCC(=O)N2CCC(c3ccn[nH]3)C2)n1 (stereo unspecified) | 17.8%
13 | Cc1nc(CN2CCCC(c3nccs3)C2)cs1 (stereo unspecified) | -0.693%
14 | CNc1cccc(CC2COCCN(C(=O)c3cnn(C)c3)C2)n1 (stereo unspecified) | -0.46%
15 | CC(=O)N1CCC1c1cc(NC2CCOCC2)nc(C)n1 (stereo unspecified) | -0.759%
16 | c1cncc(CN2CCC(c3ccnc4nccn34)C2)c1 (stereo unspecified) | -1.1%
17 | CC(C)(C)c1cc(C(=O)N2CCOC(c3cnccn3)C2)[nH]n1 (stereo unspecified) | 0.63%
18 | CC(=O)N1CCC(C)(c2cc(C(=O)NCC3CC3)nc(C)n2)CC1 | -1.84%
19 | CCCNC(=O)C1(Cc2cc(-c3ccccc3)no2)CCN(C(C)=O)C1 (stereo unspecified) | 3.68%
20 | CC(=O)NC1CCc2ccc(S(=O)(=O)NCc3ncccc3C)cc21 (stereo unspecified) | 39.1%
21 | Cc1nc(Nc2nccs2)cc(C2CN(C(C)C)C2)n1 | -5.94%
22 | Cc1nnc(N2CCOC(C)(C(=O)N(C)C)C2)c2ccccc12 (stereo unspecified) | -8.96%
23 | O=C(O)[C@H]1OCC(=O)N(Cc2cccc(Cl)c2)[C@@H]1c1ccccc1 | -6.12%
24 | Cc1cc(C)n(-c2nc(C(=O)NCCN3CCC(C)CC3)cs2)n1 | -5.84%

Row | SMILES | cytotoxicity at 70.5 h
25 | O=C(NCC1CCCO1)c1cc(-c2cccnc2)c2cnccc2n1 (stereo unspecified) | -3.09%
26 | O=C(O)[C@H]1OCC(=O)N(Cc2cccc(F)c2)[C@@H]1c1ccc(Cl)cc1 | -9.16%
27 | CS(=O)(=O)N1CC(c2ccnc(Nc3ccccn3)n2)C1 | -3.95%
28 | NC(=O)C1CN(C(=O)c2ccc(F)cc2)CCN1CCc1ccccc1 (stereo unspecified) | -4.6%
29 | CCc1nc(C)cc(N2CCN(C(=O)[C@@H]3C[C@@H]4C=C[C@H]3C4)CC2)n1 | -7.28%
30 | Cn1ccnc1-c1nc(NC2CCCC2)ncc1-c1cccc(F)c1 | 0.205%
31 | CNC(=O)C1CN(c2ncccn2)CCN1Cc1ccccc1 (stereo unspecified) | -3.64%
32 | CNC(=O)C1CN(C)CCN1c1nc(C)cc(C)n1 (stereo unspecified) | 14.1%
33 | CN(C)c1nccc(C2CCCCN2Cc2cnn3cccnc23)n1 (stereo unspecified) | -7.45%
34 | O=c1[nH]cc(N2CCOCC2)c(=O)[nH]1 | -0.0513%
35 | Cc1nc(N2CCOCC2)sc1C(=O)NCC(C)(C)N1CCCCC1 | -2%
36 | CCN(CC)C1CCN(C(=O)c2cc(-n3cccn3)ccc2Cl)CC1 | -0.746%
37 | CC(C)(C)C(=O)N1CCCc2c(cnn2-c2ccccc2)C1 | 1.62%
38 | O=S(=O)(c1ccccc1)N1CCOC(Cn2ccnc2)C1 (stereo unspecified) | -6.05%
39 | OC1(CN2CCC(Cc3ncccn3)CC2)CCCCC1 | -5.56%
40 | CC(C)N1CCN(C)CC(Cc2cc(N(C)C)ncn2)C1 (stereo unspecified) | -3.36%
41 | Cn1nc(C2CCN(C(=O)c3cnccn3)C2)cc1CCO (stereo unspecified) | -2.35%
42 | Cc1c[nH]nc1C1CCCN1Cc1ccncc1 (stereo unspecified) | -4.73%
43 | Cc1cccc(CNC(=O)CC2CCN(Cc3ccccn3)CC2)n1 | -1.17%
44 | Cn1cc(CN2CCCCC2c2ccc(-c3cccc(F)c3)nc2)cn1 (stereo unspecified) | -1.71%
45 | Cc1cc(C(=O)N2CCC(O)(Cn3ccc4ccncc43)CC2)on1 | 17.8%
46 | Cc1cc2ccncc2n1CC1(O)CCN(C(=O)c2ccncc2)CC1 | -1.76%
47 | O=C(NCc1ccccc1)NCc1nc(-c2ccncc2)n[nH]1 | -3.14%
48 | CN1C[C@@H](C(=O)NC(C)(C)C)[C@@]2(CCc3ccccc3C(=O)N2)C1 | 0.823%

Row | SMILES | cytotoxicity at 70.5 h
49 | CN1C[C@@H](C(=O)NCC(F)(F)F)[C@@]2(CCc3ccccc3C(=O)N2)C1 | 3.97%
50 | CS(=O)(=O)NC1(CCc2ccc(NC(=O)C3CC3)nc2)CCCCC1 | 15%
51 | Cc1csc2c(C3CCCN(C(=O)Cn4cncn4)C3)nc(C)n12 (stereo unspecified) | -1.76%
52 | CC(C(N)=O)n1nc(-c2cccs2)cc(N)c1=O (stereo unspecified) | -3.21%
53 | CC(C(=O)NC1CC1)n1nc(-c2cccs2)cc(N)c1=O (stereo unspecified) | 6.89%
54 | Nc1nc(SCc2ccc3c(c2)OCO3)ns1 | -0.0923%
55 | O=C(Cn1cnc2cc3c(cc21)OCCCO3)NCCc1ccccc1 | 0.395%
56 | CC(C)N1CCCC1c1nc(N(C)C)ncc1I (stereo unspecified) | -4.13%
57 | Nc1nccnc1C1CN(C(=O)COc2cccnc2)CCO1 (stereo unspecified) | 6.29%
58 | COCCN1CCC(C)(c2cc(O)[nH]n2)CC1 | -3.06%
59 | CCNC(=O)C1(Cc2cc(-c3ccccc3)no2)CCCN(C(C)C)C1 (stereo unspecified) | -6.54%
60 | O=C(c1ccc2[nH]nnc2c1)N1C[C@H](O)[C@]2(CCCO2)C1 | -1.24%
61 | CO[C@H]1CCN(C(=O)c2ccc3[nH]nnc3c2)C[C@@]12CCCO2 | -6.86%
62 | O=c1c2ccccc2nc2n1C(CSc1cccc(C(F)(F)F)c1)CN2 (stereo unspecified) | -2.38%
63 | CN1CCN(c2ncccc2N)CC1 | -11.7%
64 | COc1nccc(C(F)(F)F)c1C(=O)O | 0.892%
65 | COC(=O)Cc1cn2cc(C(F)(F)F)ccc2n1 | 13.2%
66 | CCOC(=O)[C@H]1CNC[C@@H]1C(F)(F)F | -11.1%
67 | O=c1[nH]c2ncccc2n1C1CCCCC1 | -6.95%
68 | O=C(O)c1cn2cc(C(F)(F)F)ccc2n1 | 2.77%
69 | CC(O)c1cn(Cc2ccc(Cl)cc2)nn1 (stereo unspecified) | -6.41%
70 | CN(C)c1nc2ncc(Cl)cc2cc1C#N | 22%
71 | Cc1cc(CN(C)Cc2ncc(C(C)(C)C)o2)no1 | 18.2%
72 | Cc1ccc(CN(C)Cc2ncc(C(C)(C)C)o2)o1 | 0.445%

Row | SMILES | cytotoxicity at 70.5 h
73 | N#CCCN1CCN(S(=O)(=O)c2ccc(Cl)s2)CC1 | 15.9%
74 | O=C(NCc1nnc2n1CCCCC2)N(CC1CCOC1)C1CC1 (stereo unspecified) | 17.7%
75 | O=S(=O)(c1ccc(F)cc1Cl)N1CCCC1c1ccncc1 (stereo unspecified) | -6.79%
76 | COc1c(CNCCc2c[nH]c3cc(F)ccc23)c(C)nn1C | 3.85%
77 | COc1c(CNCCc2c[nH]c3ccccc23)c(C)nn1C | 22.7%
78 | CN(CCCOc1ccccc1)C(=O)c1csc(-c2nnc[nH]2)n1 | -5.84%
79 | Cn1cc(C2CCCN2C(=O)c2cnc(C3CC3)s2)cn1 (stereo unspecified) | -5%
80 | Cn1cc(C2CCCN2C(=O)c2cnc(-c3ccccn3)s2)cn1 (stereo unspecified) | 3.12%
81 | COc1cccc(CN(C)C(=O)c2csc(-c3nnc[nH]3)n2)c1 | -1.87%
82 | COc1ccc(Br)cc1SCCCS(C)(=O)=O | -0.49%
83 | N#CCCn1cnc2c(F)cc(Br)cc2c1=O | -3.98%
84 | COCCn1cnc2c(F)cc(Br)cc2c1=O | -3.14%
85 | CC1c2ccc(F)cc2CCN1C(=O)c1nc(=O)[nH][nH]1 (stereo unspecified) | -6.25%
86 | N#CCCCn1cnc2c(F)cc(Br)cc2c1=O | -5.69%
87 | N#CC(NC(=O)CCCOc1cccnc1)c1ccccc1Cl (stereo unspecified) | -3.34%
88 | Cc1cc(CN(C)Cc2ncc(-c3ccccc3)o2)no1 | -0.145%
89 | CN(CC1CCOC1)c1ccc(Br)cn1 (stereo unspecified) | 29.9%
90 | COc1c(CNCCc2c[nH]c3ccccc23)c(C(C)C)nn1C | 2.12%
91 | Cc1ccc(-c2nc(CCNCc3ccncc3)co2)cc1 | -6.27%
92 | CC(C)N(C)CC(=O)NCc1ccccc1N1CCN(C)CC1 | 9.3%
93 | CCCN(CCn1c(=O)oc2ccccc21)CC1CC1 | 1.08%
94 | CCOC(=O)CCN(Cc1cccnc1)C(=O)c1cc(Cl)c[nH]1 | -6.02%
95 | CN1CCN(c2ccccc2CNC(=O)Cc2cccc(F)c2)CC1 | 9.04%
96 | COc1cccc(CN2CCCCC2c2n[nH]cc2-c2cc(C)no2)c1 (stereo unspecified) | -3.89%

Row | SMILES | cytotoxicity at 70.5 h
97 | Cc1cc(-c2nccs2)nc(C2CCN(Cc3ccc(F)cc3)CC2)n1 | -2%
98 | CCn1cc(-c2cncn2CCc2ccc3c(c2)OCCO3)cn1 | 19.5%
99 | Cn1cc(CN(Cc2ccccc2)Cc2ccccn2)cn1 | 18%
100 | Cc1ncccc1-c1cc2cccnc2n1CCCNC(=O)C1CC1 | 1.77%
101 | CCOC(=O)[C@H]1CNC[C@H]1C(=O)OCC | -2.7%
102 | COCc1nc(-c2ccnc(N3CCNCC3)n2)no1 | 2.75%
103 | CC(C)Cc1nc(-c2ccnc(N3CCNCC3)n2)no1 | -7.21%
104 | O=c1[nH]c2ncccc2n1C1CCNCC1 | -11%
105 | CNC(=O)c1ccc2c(c1)C1(CCN(CC(C)C)CC1)C(=O)N2 | -10.5%
106 | CC(C)CN1CCC2(CC1)C(=O)Nc1ccc(C(=O)N(C)C)cc12 | -10.1%
107 | Cc1noc(C)c1CN1C[C@H](OCC2CC2)[C@H]2OCCC[C@H]21 | -9.93%
108 | O=C([C@@H]1CC[C@@H]2[C@@H](CCN2Cc2ccoc2)O1)N1CCCC1 | -11.4%
109 | CC(C)c1ccc(CN2CCC3(CCCN(c4nncs4)C3)C2)cc1 (stereo unspecified) | -4.12%
110 | COCCN1CCc2cc(C(=O)N(C)C)c(NC(C)C)nc2CC1 | -8.98%
111 | Fc1cccnc1OC[C@@]12CCO[C@@H]1CCN(CC1CCOCC1)C2 | -9.65%
112 | COCCO[C@H]1CCN(Cc2cccs2)[C@H]1Cc1cccnc1 | -8.35%
113 | CN(C)CCN1CCO[C@H]2CN(Cc3cnn(C)c3)C[C@H]21 | -7.82%
114 | COc1ccc(CN(Cc2ccccn2)Cc2cncn2C)cc1 | -1.37%
115 | CCn1nc(C)c(CN(CCCOC)Cc2ccccn2)c1C | 8.89%
116 | Cc1c[nH]nc1C1CCCN1Cc1ncc[nH]1 (stereo unspecified) | -2.22%
